Assay results reported in PubChem BioAssay (NCI).
Values joined by “and” are separate entries in the source; they are usually repeats but may differ in a detail not shown here. Equal values may be shown once.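 Results reflect a 48-hour exposure of cells in 96-well plates to compound at five concentrations. The concentration for 50% growth inhibition is given as GI50. TGI: concentration producing complete growth inhibition.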

Experiments:
Assay in all cases: NCI anticancer screen, dose series, 48 h
HT29 colon = tested on: HT29 colon
CAKI-1 renal = tested on: CAKI-1 renal
MDA-MB-435 = tested on: MDA-MB-435
HS 578T breast = tested on: HS 578T breast
SK-MEL-2 melanoma = tested on: SK-MEL-2 melanoma
SR leukemia = tested on: SR leukemia
SK-MEL-5 melanoma = tested on: SK-MEL-5 melanoma
UACC-62 melanoma = tested on: UACC-62 melanoma
COLO 205 colon = tested on: COLO 205 colon
HCC-2998 colon = tested on: HCC-2998 colon

COc1cc2c3c(n(CCCBr)c(=O)c2cc1OC)-c1ccc(F)cc1C3=O
GI50 (HT29 colon): 16.9 µM
TGI (HT29 colon): > 100 µM
GI50 (CAKI-1 renal): 7.9 µM
TGI (CAKI-1 renal): 33.7 µM
GI50 (MDA-MB-435): 43.9 µM
TGI (MDA-MB-435): > 100 µM
GI50 (HS 578T breast): 32 µM
TGI (HS 578T breast): > 100 µM
GI50 (SK-MEL-2 melanoma): 23 µM
TGI (SK-MEL-2 melanoma): 80.6 µM
GI50 (SR leukemia): 0.28 µM
TGI (SR leukemia): 1.73 µM
GI50 (SK-MEL-5 melanoma): 10.9 µM
TGI (SK-MEL-5 melanoma): 24.1 µM
GI50 (UACC-62 melanoma): 3.93 µM
TGI (UACC-62 melanoma): 24.5 µM
GI50 (COLO 205 colon): 33.4 µM
TGI (COLO 205 colon): > 100 µM
GI50 (HCC-2998 colon): 13.7 µM
TGI (HCC-2998 colon): > 100 µM

CN1C[C@@H]2Cn3c(c(C4=C(c5cn(C)c6ccccc56)C(=O)NC4=O)c4ccccc43)C[C@H]2C1
GI50 (HT29 colon): 3.87 µM and 3.22 µM
TGI (HT29 colon): 10.8 µM and 11.6 µM
GI50 (CAKI-1 renal): 3.43 µM and 4.29 µM
TGI (CAKI-1 renal): 8.28 µM and 9.96 µM
GI50 (MDA-MB-435): 3.43 µM and 3.16 µM
TGI (MDA-MB-435): 7.09 µM
GI50 (HS 578T breast): 2.71 µM and 2.63 µM
TGI (HS 578T breast): 8.34 µM and 9.51 µM
GI50 (SK-MEL-2 melanoma): 4.52 µM and 3.91 µM
TGI (SK-MEL-2 melanoma): 8.92 µM and 7.75 µM
GI50 (SR leukemia): 4.89 µM and 1.77 µM
TGI (SR leukemia): 14.4 µM and 7.38 µM
GI50 (SK-MEL-5 melanoma): 4.17 µM and 3.68 µM
TGI (SK-MEL-5 melanoma): 8.01 µM and 7.28 µM
GI50 (UACC-62 melanoma): 3.89 µM and 3.61 µM
TGI (UACC-62 melanoma): 7.64 µM and 7.19 µM
GI50 (COLO 205 colon): 3.09 µM and 1.96 µM
TGI (COLO 205 colon): 6.7 µM and 5.72 µM
GI50 (HCC-2998 colon): 4.59 µM and 4.4 µM
TGI (HCC-2998 colon): 8.71 µM and 9.65 µM

NS(=O)(=O)c1ccc(-n2ncc3c(Nc4ccccc4)ncnc32)cc1
GI50 (HT29 colon): 3.33 µM
TGI (HT29 colon): 15.7 µM
GI50 (CAKI-1 renal): 23.7 µM
TGI (CAKI-1 renal): > 100 µM
GI50 (MDA-MB-435): 46.2 µM
TGI (MDA-MB-435): > 100 µM
GI50 (HS 578T breast): 33.8 µM
TGI (HS 578T breast): > 100 µM
GI50 (SK-MEL-2 melanoma): 44.3 µM
TGI (SK-MEL-2 melanoma): > 100 µM
GI50 (SR leukemia): 29.6 µM
TGI (SR leukemia): > 100 µM
GI50 (SK-MEL-5 melanoma): 24.4 µM
TGI (SK-MEL-5 melanoma): > 100 µM
GI50 (UACC-62 melanoma): 42.8 µM
TGI (UACC-62 melanoma): > 100 µM
GI50 (COLO 205 colon): 21.1 µM
TGI (COLO 205 colon): > 100 µM
GI50 (HCC-2998 colon): 16.6 µM
TGI (HCC-2998 colon): 57.7 µM

Cc1cc(C)c(S(=O)(=O)N(CCc2cccc(Br)c2)Cc2ccc(-c3cccc(S(C)(=O)=O)c3)cc2)c(C)c1
GI50 (HT29 colon): > 100 µM
TGI (HT29 colon): > 100 µM
GI50 (CAKI-1 renal): > 100 µM
TGI (CAKI-1 renal): > 100 µM
GI50 (MDA-MB-435): > 100 µM
TGI (MDA-MB-435): > 100 µM
GI50 (HS 578T breast): > 100 µM
TGI (HS 578T breast): > 100 µM
GI50 (SK-MEL-2 melanoma): > 100 µM
TGI (SK-MEL-2 melanoma): > 100 µM
GI50 (SR leukemia): > 100 µM
TGI (SR leukemia): > 100 µM
GI50 (SK-MEL-5 melanoma): > 100 µM
TGI (SK-MEL-5 melanoma): > 100 µM
GI50 (UACC-62 melanoma): > 100 µM
TGI (UACC-62 melanoma): > 100 µM
GI50 (COLO 205 colon): > 100 µM
TGI (COLO 205 colon): > 100 µM
GI50 (HCC-2998 colon): > 100 µM
TGI (HCC-2998 colon): > 100 µM

CN(C)CCSCCO
TGI (HT29 colon): > 100 µM
TGI (CAKI-1 renal): > 100 µM
TGI (MDA-MB-435): > 100 µM
TGI (HS 578T breast): > 100 µM
TGI (SK-MEL-2 melanoma): > 100 µM
TGI (SR leukemia): > 100 µM
TGI (SK-MEL-5 melanoma): > 100 µM
TGI (UACC-62 melanoma): > 100 µM
TGI (COLO 205 colon): > 100 µM
TGI (HCC-2998 colon): > 100 µM

Nc1ccc(C(OC(=O)c2cc3ccccc3c(Cc3c(O)c(C(=O)OC(c4ccc(N)cc4)(c4ccc(N)cc4)c4ccc(N)cc4)cc4ccccc34)c2O)(c2ccc(N)cc2)c2ccc(N)cc2)cc1
GI50 (HT29 colon): 1.79 µM
TGI (HT29 colon): 11.6 µM
GI50 (CAKI-1 renal): 13.6 µM
TGI (CAKI-1 renal): > 100 µM
GI50 (MDA-MB-435): 2.5 µM
TGI (MDA-MB-435): 30.3 µM
GI50 (HS 578T breast): 0.201 µM
TGI (HS 578T breast): 0.867 µM
GI50 (SK-MEL-2 melanoma): 1.4 µM
TGI (SK-MEL-2 melanoma): 4.55 µM
GI50 (SR leukemia): 4.18 µM
TGI (SR leukemia): > 100 µM
GI50 (SK-MEL-5 melanoma): 0.455 µM
TGI (SK-MEL-5 melanoma): 2.3 µM
GI50 (UACC-62 melanoma): 1.98 µM
TGI (UACC-62 melanoma): 11.9 µM
GI50 (COLO 205 colon): 1.21 µM
TGI (COLO 205 colon): 3.15 µM
GI50 (HCC-2998 colon): 1.83 µM
TGI (HCC-2998 colon): 15.5 µM

COc1c(Cl)ccc2c(-c3nc4cc(Cl)c(F)cc4s3)cc(=O)oc12
GI50 (HT29 colon): 2.76 µM
TGI (HT29 colon): 6.54 µM
GI50 (CAKI-1 renal): 1.98 µM
GI50 (MDA-MB-435): 25 µM
TGI (MDA-MB-435): > 66.1 µM
GI50 (HS 578T breast): 26.8 µM
TGI (HS 578T breast): > 100 µM
GI50 (SK-MEL-2 melanoma): 21.4 µM
TGI (SK-MEL-2 melanoma): 87.9 µM
GI50 (SR leukemia): 2.2 µM
TGI (SR leukemia): 8.23 µM
GI50 (SK-MEL-5 melanoma): 26.5 µM
TGI (SK-MEL-5 melanoma): > 88.4 µM
GI50 (UACC-62 melanoma): 16.5 µM
TGI (UACC-62 melanoma): 53.7 µM
GI50 (COLO 205 colon): 10.1 µM
TGI (COLO 205 colon): 38.3 µM
GI50 (HCC-2998 colon): 38.5 µM
TGI (HCC-2998 colon): > 100 µM

NCCCN1CCN(CCCNc2nc3ccccc3c3[nH]c4ccccc4c23)CC1
GI50 (HT29 colon): 0.212 µM
TGI (HT29 colon): 1.99 µM
GI50 (CAKI-1 renal): 0.414 µM
TGI (CAKI-1 renal): 3.45 µM
GI50 (MDA-MB-435): 0.651 µM
TGI (MDA-MB-435): 2.41 µM
GI50 (HS 578T breast): 0.521 µM
TGI (HS 578T breast): 2.89 µM
GI50 (SK-MEL-2 melanoma): 0.567 µM
TGI (SK-MEL-2 melanoma): 1.1 µM
GI50 (SR leukemia): 0.352 µM
TGI (SR leukemia): 71.9 µM
GI50 (SK-MEL-5 melanoma): 1.14 µM
TGI (SK-MEL-5 melanoma): 2.53 µM
GI50 (UACC-62 melanoma): 0.541 µM
TGI (UACC-62 melanoma): 1.1 µM
GI50 (COLO 205 colon): 0.214 µM
TGI (COLO 205 colon): 1.05 µM
GI50 (HCC-2998 colon): 0.0895 µM
TGI (HCC-2998 colon): 0.758 µM

Cc1ccc2nc(-c3ccc(N)c4ccccc34)[nH]c2c1
GI50 (HT29 colon): 0.361 µM
GI50 (CAKI-1 renal): 0.405 µM
TGI (CAKI-1 renal): 5.62 µM
GI50 (MDA-MB-435): 0.187 µM
TGI (MDA-MB-435): 0.444 µM
GI50 (HS 578T breast): 0.263 µM
TGI (HS 578T breast): 32.4 µM
GI50 (SK-MEL-2 melanoma): 0.209 µM
TGI (SK-MEL-2 melanoma): 24.9 µM
GI50 (SR leukemia): 0.325 µM
TGI (SR leukemia): 2.09 µM
TGI (SK-MEL-5 melanoma): 1.73 µM
GI50 (UACC-62 melanoma): < 0.0147 µM
TGI (UACC-62 melanoma): 17.2 µM
GI50 (COLO 205 colon): 1.07 µM
TGI (COLO 205 colon): 6.31 µM
GI50 (HCC-2998 colon): 0.356 µM
TGI (HCC-2998 colon): 12.1 µM
